The results in this text go back to patent US20260176289A1, “SMALL MOLECULE INHIBITORS OF KRAS PROTEINS” (Merck Sharp & Dohme LLC, priority 2022, published 2026).

Where two headings read alike, the source gives them in different places.

One assay concerns MKN-1 cells. As to the kind of experiment: Cellular phospho-ERK assay, MKN-1 cells (amplified wild-type KRAS). The class given is cell-based. The following applies: Homo sapiens, read-out: MKN1 pERK IC50. An outline of the steps: (§1)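 ERK phosphorylation relative to total ERK is the endpoint, detected by AlphaScreen-based SureFire multiplex following a 2-hour treatment at 37 °C. Compounds are titrated 1:3 over ten points from 30 μM.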

A further assay concerns SW620 cells. As to the kind of experiment: Cellular phospho-ERK assay, SW620 cells (homozygous KRAS-G12V). The format is cell-based. The following applies: Homo sapiens, read-out: SW620 pERK IC50. An outline of the steps: as §1
A further assay addresses KRAS-G12D (Homo sapiens, UniProt P01116, G12D). As to the kind of experiment: SOS-catalyzed nucleotide exchange assay (Procedure A, TR-FRET), KRAS-G12D. The format is biochemical. The following applies: nucleotide exchange, read-out: KRAS G12D GNE IC50. An outline of the steps: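 Signal ratio (520/495 nm, excitation 340 nm) reports Bodipy-GDP retention on biotinylated RAS after SOS-catalyzed exchange with 3 mM GTP. SOS was 40 nM, except 160 nM for G12V. Room-temperature exchange lasted 60 min (90 min for G12V), following a 60 min compound preincubation.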
For orientation: In TR-FRET formats the signal depends on donor and acceptor labels being close together.

The next assay deals with PANC08.13 cells. As to the kind of experiment: Cellular phospho-ERK assay, PANC08.13 cells (homozygous KRAS-G12D). The format is cell-based. The following applies: Homo sapiens, read-out: PANC-08.13 pERK IC50. A digest of the protocol: as §1
The test system of another assay is AsPC-1 cells. Kind of assay: Cellular phospho-ERK assay, AsPC-1 cells (homozygous KRAS-G12D). The format is cell-based. The following applies: Homo sapiens, ASPC1, 2 h, read-out: AsPC1 pERK IC50. A digest of the protocol: as §1
The target of the next assay is KRAS-WT (Homo sapiens, UniProt P01116). Kind of assay: SOS-catalyzed nucleotide exchange assay (Procedure A, TR-FRET), KRAS-WT. The format is biochemical. The settings on record: nucleotide exchange, read-out: KRAS WT GNE IC50. A digest of the protocol:
(§2)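 Biotinylated RAS (KRAS-G12C carries C51S/C80L/C118S; others WT background) preloaded with Bodipy-GDP plus Tb-streptavidin, preincubated with compound 60 min at RT, then human SOS and 3 mM GTP added. Final RAS/SOS: G12C 3 nM/40 nM, 60 min; WT 1 nM/40 nM, 60 min; G12V 1.25 nM/160 nM, 90 min; NRAS 1.25 nM/40 nM, 60 min. TR-FRET 520/495 ratio normalized to DMSO and saturating inhibitor; 10-point curves fit four-parameter logistic.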

Assay [1] has as its target KRAS-G12C (C51S/C80L/C118S) (Homo sapiens, UniProt P01116, C118S/C51S/C80L/G12C). Kind of assay: SOS-catalyzed nucleotide exchange assay (Procedure A, TR-FRET), KRAS-G12C. The format is biochemical. The settings on record: nucleotide exchange, Procedure A; read-out: KRAS G12C GNE IC50. A digest of the protocol: as §2
A further assay has as its target KRAS-G13D (Homo sapiens, UniProt P01116, G13D). Kind of assay: SOS-catalyzed nucleotide exchange assay (Procedure A, TR-FRET), KRAS-G13D. The class given is biochemical. The settings on record: nucleotide exchange, Procedure A; read-out: KRAS G13D GNE IC50.
For the next assay, the target named is KRAS-G12V (Homo sapiens, UniProt P01116, G12V). Kind of assay: SOS-catalyzed nucleotide exchange assay (Procedure A, TR-FRET), KRAS-G12V. The format is biochemical. The following applies: nucleotide exchange, read-out: KRAS G12V GNE IC50. An outline of the steps:
as §2

[2] abbreviates: amplified wild-type KRAS, 2 hours.

Chain of KRAS-G13D (P01116 with tags, fused parts or gaps isoform P01116-2 G13D): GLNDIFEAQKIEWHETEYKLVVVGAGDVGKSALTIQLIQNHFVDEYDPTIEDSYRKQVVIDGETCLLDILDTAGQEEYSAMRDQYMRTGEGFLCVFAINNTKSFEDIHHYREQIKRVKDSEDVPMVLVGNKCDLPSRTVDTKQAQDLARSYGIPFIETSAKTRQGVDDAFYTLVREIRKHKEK
Chain of KRAS-G12V (P01116 with tags, fused parts or gaps isoform P01116-2 G12V): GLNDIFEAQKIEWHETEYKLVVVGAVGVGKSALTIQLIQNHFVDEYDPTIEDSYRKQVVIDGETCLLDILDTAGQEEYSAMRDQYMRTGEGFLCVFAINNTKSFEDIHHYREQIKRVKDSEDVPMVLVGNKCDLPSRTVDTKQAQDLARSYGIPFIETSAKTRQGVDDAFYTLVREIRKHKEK
Chain of KRAS-WT (P01116 with tags, fused parts or gaps isoform P01116-2): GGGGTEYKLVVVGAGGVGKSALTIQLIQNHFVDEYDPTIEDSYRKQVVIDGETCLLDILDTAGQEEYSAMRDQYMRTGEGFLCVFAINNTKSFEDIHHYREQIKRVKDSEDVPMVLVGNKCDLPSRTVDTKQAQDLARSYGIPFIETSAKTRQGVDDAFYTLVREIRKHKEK
Chain of KRAS-G12C (C51S/C80L/C118S) (P01116 with tags, fused parts or gaps isoform P01116-2 G12C/C51S/C80L/C118S): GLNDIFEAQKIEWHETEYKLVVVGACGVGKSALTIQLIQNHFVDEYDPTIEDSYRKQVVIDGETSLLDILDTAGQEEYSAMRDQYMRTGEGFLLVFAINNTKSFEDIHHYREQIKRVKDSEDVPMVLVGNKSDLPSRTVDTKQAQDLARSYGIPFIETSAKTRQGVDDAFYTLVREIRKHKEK
Chain of KRAS-G12D (P01116 with tags, fused parts or gaps isoform P01116-2 G12D): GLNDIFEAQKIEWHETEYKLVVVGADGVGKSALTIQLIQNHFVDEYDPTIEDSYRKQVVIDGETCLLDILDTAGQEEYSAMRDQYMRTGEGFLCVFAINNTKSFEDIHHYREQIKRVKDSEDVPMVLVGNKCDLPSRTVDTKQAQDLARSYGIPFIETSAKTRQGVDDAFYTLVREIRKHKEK

One may read the IC50 as the concentration that inhibits the measured activity by half. For the molecule `C=Cc1c(C)cc2[nH]ncc2c1-c1nccc2c1sc1nc(OC[C@@]34CCCN3C[C@H](F)C4)nc(N3CCOC[C@@](C)(O)C3)c12` [Ex-35, (6S)-4-(2-(((2R,7aS)-2-fluorotetrahydro-1H-pyrrolizin-7a(5H)-yl)methoxy)-8-(6-methyl-5-vinyl-1H-indazol-4-yl)pyrido[4′,3′:4,5]thieno[2,3-d]pyrimidin-4-yl)-6-methyl-1,4-oxazepan-6-ol], the IC50 was determined as 121 nM with MKN-1 cells (setting [2]); 172 nM in the assay with SW620 cells (SW-620, KRAS-G12V, 2 hours); 31.9 nM on KRAS-G12D; 73.5 nM in the assay on PANC08.13 cells (PANC-08-13, KRAS-G12D, 2 hours); 264 nM with AsPC-1 cells (KRAS-G12D, 2 hours); 66.7 nM on KRAS-WT. Also, the results for the IC50 (in assay [1]; at KRAS-G13D; on KRAS-G12V) were 29.2 nM, 47.1 nM and 73.7 nM, respectively.

As to `C#Cc1c(C)cc2[nH]ncc2c1-c1nccc2c3c(N4CCOC[C@@](C)(O)C4)nc(OC[C@@]45CCCN4C[C@H](F)C5)nc3n(C)c12` (single isomer, unassigned) [Ex-7], the IC50 in the assay with MKN-1 cells (setting [2]) came out at 142 nM; with SW620 cells (SW-620, KRAS-G12V, 2 hours) it was 233 nM; at KRAS-G12D, 22.3 nM; in the assay with PANC08.13 cells (PANC-08-13, KRAS-G12D, 2 hours) it was 99.9 nM; in the assay on AsPC-1 cells (KRAS-G12D, 2 hours), 248 nM; at KRAS-WT, 42.9 nM. Further, the figures for the IC50 (in assay [1]; at KRAS-G13D; at KRAS-G12V) were 129 nM, 22.9 nM and 30.2 nM, respectively.

With `Cc1cc2[nH]ncc2c(-c2nccc3c4c(N5CCOC[C@@](C)(O)C5)nc(OC[C@@]56CCCN5C[C@H](F)C6)nc4n(C)c23)c1C(F)F` (single isomer, unassigned) [Ex-10], the IC50 with MKN-1 cells (setting [2]) turned out to be 200 nM; with SW620 cells (SW-620, KRAS-G12V, 2 hours), 337 nM; at KRAS-G12D it was 40.3 nM; in the assay with PANC08.13 cells (PANC-08-13, KRAS-G12D, 2 hours), 191 nM; with AsPC-1 cells (KRAS-G12D, 2 hours), 439 nM; at KRAS-WT it was 97.7 nM. The IC50 turned out to be 30.1 nM in assay [1], 93.8 nM at KRAS-G13D and 54 nM on KRAS-G12V.

Regarding `Cc1cc2[nH]ncc2c(-c2nccc3c4c(N5CCC[C@@](C)(O)C5)nc(OC[C@]5(CN(C)C)CC5(F)F)nc4n(C)c23)c1C(F)(F)F` [Ex-6, (3R)-1-(2-(((R)-1-((dimethylamino)methyl)-2,2-difluorocyclopropyl)methoxy)-9-methyl-8-(6-methyl-5-(trifluoromethyl)-1H-indazol-4-yl)-9H-pyrido[4′,3′:4,5]pyrrolo[2,3-d]pyrimidin-4-yl)-3-methylpiperidin-3-ol], the IC50 in the assay on MKN-1 cells (setting [2]) stood at 304 nM; in the assay with SW620 cells (SW-620, KRAS-G12V, 2 hours), 291 nM; on KRAS-G12D, 98.1 nM; in the assay with PANC08.13 cells (PANC-08-13, KRAS-G12D, 2 hours), 188 nM; with AsPC-1 cells (KRAS-G12D, 2 hours) it was 460 nM; at KRAS-WT it was 218 nM. Besides, the IC50 in assay [1] came out at 104 nM; at KRAS-G13D it was 49 nM; at KRAS-G12V, 128 nM.

With `Cc1cc2[nH]ncc2c(-c2nccc3c4c(N5CCOC[C@@](C)(O)C5)nc(OC[C@]5(CN(C)C)CC5(F)F)nc4n(C)c23)c1C(F)F` (single isomer, unassigned) [Ex-19], the IC50 with MKN-1 cells (setting [2]) was determined as 118 nM; in the assay with SW620 cells (SW-620, KRAS-G12V, 2 hours), 214 nM; on KRAS-G12D, 26.5 nM; in the assay on PANC08.13 cells (PANC-08-13, KRAS-G12D, 2 hours), 68.2 nM; in the assay on AsPC-1 cells (KRAS-G12D, 2 hours) it was 58.5 nM; at KRAS-WT it was 85.5 nM. The IC50 in assay [1] was determined as 37.4 nM; at KRAS-G13D, 68.3 nM; at KRAS-G12V, 67.2 nM.

For `C=C(C)c1c(C)cc2[nH]ncc2c1-c1nccc2c1sc1nc(OC[C@@]34CCCN3C[C@H](F)C4)nc(N3CCOC[C@@](C)(O)C3)c12` [Ex-136, (6S)-4-(2-(((2R, 7aS)-2-fluorotetra-hydro-1H-pyrrol-izin-7a(5H)-yl)meth-oxy)-8-(6-methyl-5-(prop-1-en-2-yl)-1H-indazol-4-yl)pyr-ido[4′,3′:4,5]thieno [2,3-d]pyrimidin-4-yl)-6-methyl-1,4-oxazepan-6-ol], the IC50 with MKN-1 cells (2 hours compound incubation) came out at 118 nM; with SW620 cells (SW-620, 2 hours compound incubation) it was 253 nM; on KRAS-G12D it was 21.6 nM; in the assay with PANC08.13 cells (PANC-08-13, 2 hours compound incubation), 58.4 nM; in the assay on AsPC-1 cells (2 hours compound incubation), 131 nM; on KRAS-WT, 60 nM. Moreover, the IC50 was 39 nM in assay [1], 24.8 nM on KRAS-G13D and 40.6 nM on KRAS-G12V.

With `Cc1cc2[nH]ncc2c(-c2nccc3c2sc2nc(OC[C@@]45CCCN4C[C@H](F)C5)nc(N4CCOC[C@@](C)(O)C4)c23)c1C(F)(F)F` [Ex-126, (6S)-4-(2-(((2R,7aS)-2-fluorotetrahydro-1H-pyrrolizin-7a(5H)-yl)methoxy)-8-(6-methyl-5-(trifluoromethyl)-1H-indazol-4-yl)pyrido[4′,3′:4,5]thieno[2,3-d]pyrimidin-4-yl)-6-methyl-1,4-oxazepan-6-ol], the IC50 with MKN-1 cells (setting [2]) amounted to 169 nM; in the assay on SW620 cells (SW-620, KRAS-G12V, 2 hours), 320 nM; on KRAS-G12D it was 34.9 nM; with PANC08.13 cells (PANC-08-13, KRAS-G12D, 2 hours), 85.4 nM; with AsPC-1 cells (KRAS-G12D, 2 hours) it was 271 nM; on KRAS-WT it was 88.3 nM. For the same molecule, the concentration for half-maximal inhibition (IC50) in assay [1] stood at 30.7 nM; at KRAS-G13D, 58.6 nM; on KRAS-G12V it was 52.8 nM.

As for `CCOc1c(C)cc2[nH]ncc2c1-c1nccc2c1sc1nc(OC[C@@]34CCCN3C[C@H](F)C4)nc(N3CCOC[C@@](C)(O)C3)c12` [Ex-38, (6S)-4-(8-(5-ethoxy-6-methyl-1H-indazol-4-yl)-2-(((2R,7aS)-2-fluorotetrahydro-1H-pyrrolizin-7a(5H)-yl)methoxy)pyrido[4′,3′:4,5]thieno[2,3-d]pyrimidin-4-yl)-6-methyl-1,4-oxazepan-6-ol], the IC50 in the assay with MKN-1 cells (setting [2]) was determined as 197 nM; in the assay on SW620 cells (SW-620, KRAS-G12V, 2 hours) it was 277 nM; at KRAS-G12D, 96.6 nM; in the assay on PANC08.13 cells (PANC-08-13, KRAS-G12D, 2 hours), 122 nM; with AsPC-1 cells (KRAS-G12D, 2 hours) it was 395 nM; on KRAS-WT, 239 nM. In addition, the IC50 in [1] came out at 36 nM; on KRAS-G13D it was 123 nM; on KRAS-G12V, 186 nM.

Regarding `Cc1cc2[nH]ncc2c(-c2nccc3c2sc2nc(OC[C@@]45CCCN4C[C@H](F)C5)nc(N4CCOC[C@@](C)(O)C4)c23)c1OC(F)(F)Cl` [Ex-39, (6S)-4-(8-(5-(chlorodifluoromethoxy)-6-methy1-1H-indazol-4-yl)-2-(((2R,7aS)-2-fluorotetrahydro-1H-pyrrolizin-7a(5H)-yl)methoxy)pyri-do[4′,3′:4,5]thi-eno[2,3-d]pyrimidin-4-yl)-6-methyl-1,4-oxazepan-6-ol], the IC50 in the assay on MKN-1 cells (setting [2]) turned out to be 44.2 nM; in the assay on SW620 cells (SW-620, KRAS-G12V, 2 hours), 74.3 nM; on KRAS-G12D, 9.23 nM; in the assay with PANC08.13 cells (PANC-08-13, KRAS-G12D, 2 hours), 35.7 nM; in the assay on AsPC-1 cells (KRAS-G12D, 2 hours), 118 nM; on KRAS-WT, 30 nM. Besides, the IC50 in [1] came out at 9.42 nM; on KRAS-G13D, 20.4 nM; at KRAS-G12V it was 30.9 nM.

Consider `C[C@@]1(O)COCCN(c2nc(OC[C@@]34CCCN3C[C@H](F)C4)nc3sc4c(-c5c(C(F)(F)F)c(Cl)cc6[nH]ncc56)nccc4c23)C1` [Ex-40, (6S)-4-(8-(6-chloro-5-(trifluoromethyl)-1H-indazol-4-yl)-2-(((2R,7aS)-2-fluorotetrahydro-1H-pyrrolizin-7a(5H)-yl)methoxy)pyrido[4′,3′:4,5]thi-eno[2,3-d]pyrimidin-4-yl)-6-methyl-1,4-oxazepan-6-ol], for which the IC50 in the assay with MKN-1 cells (setting [2]) worked out at 159 nM; with SW620 cells (SW-620, KRAS-G12V, 2 hours) it was 124 nM; on KRAS-G12D it was 61.5 nM; in the assay on PANC08.13 cells (PANC-08-13, KRAS-G12D, 2 hours), 114 nM; in the assay with AsPC-1 cells (KRAS-G12D, 2 hours), 294 nM; at KRAS-WT, 138 nM. Further, the IC50 in assay [1] was 34.4 nM; on KRAS-G13D, 52.4 nM; on KRAS-G12V, 83.4 nM.
